Test results published in patent publication US9981988B2, “Polymorphic forms and co-crystals of a c-Met inhibitor” (AMGEN, INC., priority 2014, dated 2018).

Assay: Solubility in organic solvents
Assay type: physicochemical
Settings: 20 °C, organic solvent or mixture, thermodynamic from solid; about 20 to about 25° C.; solvent not given
Protocol: In all studies, excess solid of the compound was allowed to equilibrate for at least 12 hours while stirring.

Work on `COCCOc1cnc2ccn([C@H](C)c3nnc4c(F)cc(-c5cnn(C)c5)cn34)c(=O)c2c1` [DMSO hemisolvate form of Compound M, 6-{(1R)-1-[8-fluoro-6-(1-methyl-1H-pyrazol-4-yl)[1,2,4]triazolo[4,3-a]pyridin-3-yl]ethyl}-3-(2-methoxyethoxy)-1,6-naphthyridin-5(6H)-one] yielded a solubility of roughly 164 mg/mL.
